From article PMC11795524, “Melanin-Binding-Based Discovery of Topically Instilled Carbonic Anhydrase Inhibitors for Targeted Delivery and Prolonged Action in the Eye” (Molecular Pharmaceutics, 2025)
Read-outs that look alike come from different tables or passages of the source.

What was measured:
[1] = In vitro melanin binding by microscale thermophoresis / initial fluorescence (Monolith NT.115 pico); conditions: Appendix table 1, Nano or Pico detector, IF or MST mode, 68% confidence; for Kd: read-out: Melanin binding affinity Kd ± confidence
Text: Melanin binding of the CAI-II compounds was studied with a Monolith NT.115 pico (NanoTemper Technologies GmbH, Munich, Germany) device using the method of […] et al. […] Otherwise, normalized fluorescence signals and the ratio of relative fluorescence after heating (MST mode) were used. The MST software was used in expert mode to allow heating for 30 s. […] As ligand autofluorescence may interfere with the assay, their autofluorescence values were pretested with the detector used in experiment (nanoblue or pico-red). Fluorescence of the ligand should be below 20% of melanin fluorescence. Sample aggregation and adsorption to the capillaries were used also as exclusion criteria.

[2] = molecular target: recombinant human carbonic anhydrase II; design: method as in earlier work; conditions: stopped flow kinetics protocol; read-out: Ki against hCA II; cited from earlier work
[3] = molecular target: T1, human carbonic anhydrase II (Homo sapiens, UniProt P00918); test: Multiparametric surface plasmon resonance (MP-SPR) interaction kinetics with immobilized hCAII; assay type: binding
T1 construct: purchased Sigma
Method: All MP-SPR measurements were conducted at 25 °C using carboxymethyl dextran hydrogel-coated (CMD-3DM) sensors (BioNavis) and were based on the protocol described by Rogez-Florent et al.[22]
Human carbonic anhydrase isoenzyme II (Sigma) was immobilized using a standard amine coupling procedure with the Amine Coupling Kit (BioNavis) and phosphate buffered saline (PBS) (20 mM phosphate buffer, 150 mM NaCl, pH 7.4) as the background buffer. Before immobilization, the sensor surface was cleaned with 2 M sodium chloride and 10 mM sodium hydroxide for 6 min at a flow rate of 30 μL/min. Then, a constant flow rate of 10 μL/min was maintained throughout the immobilization steps. The surface was activated for 7 min with 200 mM 1-ethyl-3-(3-(dimethylamino)propyl)-carbodiimide (EDC) and 50 mM N-hydroxysuccinimide, immediately followed by a 5 min injection of 45 μg/mL hCAII solution in 10 mM acetate buffer, pH 5.5. In the reference flow channel, no enzyme was immobilized. Residual activated groups of the dextran matrix were deactivated by a 7 min injection of 1 M ethanolamine HCl, pH 8.3.
For analyzing CAIs, 1% (v/v) DMSO in PBS, pH 7.4, was used as a running buffer. All CAIs were dissolved in 100% DMSO and stored as 50 mM stock solutions. These stock solutions were further diluted with the running buffer and analyzed using a 3-fold (3–1000 nM) dilution series. […] Each analyte was injected at a flow rate of 100 μL/min, with an association time of 2 min and a dissociation time of 10 min. […] Seven concentrations were measured for each CAI per cycle, and a “wash all” step with running buffer was performed at the end of each cycle to minimize the carry over effects. Each CAI were assayed in triplicate across three independent experiments.
The acquired data were processed using MP-SPR Navi Data Viewer software (version 6.7.0.1, BioNavis) employing the weighted centroid method for determining the SPR peak angular position. Signals from the reference flow channel were subtracted from the corresponding signals of the flow channel containing immobilized hCAII. The moment of sample injection was selected as the zero-time point, where both the time and MP-SPR response were set to zero. Processed data were globally fitted to a simple 1:1 interaction model using TraceDrawer software (version 1.9.2, Ridgeview Instruments AB, Sweden) to obtain kinetic parameters.

[4] = MP-SPR, 25 °C, 1:1 model, read-out: KD

SMILES | Kd [1] [µM] | Ki [2] [nM] | also measured
NS(=O)(=O)c1ccc(-n2ncc3ccccc3c2=O)cc1 [A06] | 104 ± 42 | 0.23 ± 0.02 | 
Cc1nn(-c2ccc(S(N)(=O)=O)cc2)c(=O)c2ccccc12 [A14] | 205 ± 98 | 0.03 ± 0.01 | 
CC(=NNc1ccc(S(N)(=O)=O)cc1Br)c1cccnc1 [A15] | 230 ± 85 |  | ka ([3]; MP-SPR, 25 °C, 1:1 model): 0.43 ± 0.25 10^6 M^–1 s^–1; kd ([3]; MP-SPR, 25 °C, 1:1 model): 1.25 ± 0.43 10^–2 s^–1; Kd [3, 4]: 0.046 ± 0.0298 µM
NS(=O)(=O)c1ccc(-c2noc(-c3ccsc3)n2)cc1 [A18] | 520 ± 79 | 44.3 ± 4.4 | 
CC(=NNc1ccc(S(N)(=O)=O)cc1)c1cncc(Br)c1 [A19] | 561 ± 299 |  | ka ([3]; MP-SPR, 25 °C, 1:1 model): 0.15 ± 0.04 10^6 M^–1 s^–1; kd ([3]; MP-SPR, 25 °C, 1:1 model): 2.25 ± 0.02 10^–2 s^–1; Kd [3, 4]: 0.161 ± 0.041 µM
NS(=O)(=O)c1ccc(-n2ncccc2=O)cc1 [A20] |  | 8.2 ± 0.8 | 
Cc1cc(-n2cccn2)ccc1S(N)(=O)=O [A23] | 957 ± 2010 | 0.008 ± 0.001 | 
NS(=O)(=O)c1ccc(-n2nc(-c3ccc(Cl)c(Cl)c3)ccc2=O)cc1 [A25] |  | 74.1 ± 7.4 | 
CC(C)(C)c1ccc(-c2noc(-c3ccc(S(N)(=O)=O)cc3)n2)cc1 [A26] |  | 0.95 ± 0.09 | 
NS(=O)(=O)c1ccc(Cl)c(-n2cccn2)c1 [A27] |  | 0.001 ± 0.001 | 
Cc1cc(C)n(-c2ccc(S(N)(=O)=O)cc2)n1 [A28] |  | 0.004 ± 0.001 | 
NS(=O)(=O)c1ccc(-n2ncc(N3CCc4ccccc4C3)c(Cl)c2=O)cc1 [A29] |  | 60.5 ± 6 | 
Cc1ccc(=O)n(-c2ccc(S(N)(=O)=O)cc2)n1 [A30] |  | 0.68 ± 0.07 | Melanin binding affinity Kd ± confidence [1]: Not detectable
CCn1nc(-c2cc(S(N)(=O)=O)c(C)s2)ccc1=O [B01] | 105 ± 30 | 4.8 ± 0.5 | 
NS(=O)(=O)c1ccc(-c2ccc(=O)[nH]n2)s1 [B04] | 393 ± 185 | 3.6 ± 0.4 | 
Cc1ccc(-c2noc(N)c2S(N)(=O)=O)cc1S(N)(=O)=O [B06] | 573 ± 154 | 6 ± 0.6 | 

SMILES | Kd [1] [µM] | Ki [2] [nM] | also measured
Cc1nn(-c2ccc(Cl)c(S(N)(=O)=O)c2)c(C)c1S(N)(=O)=O [B08] |  | 0.008 ± 0.001 | 
Cc1nn(-c2cc(S(N)(=O)=O)ccc2Cl)c(C)c1S(N)(=O)=O [B10] |  | 0.008 ± 0.01 | 
Cc1ccccc1-n1nc(C)c(S(N)(=O)=O)c1C [B11] |  | 0.091 ± 0.01 | Melanin binding affinity Kd ± confidence [1]: Not detectable
NS(=O)(=O)N1CCC(O)CC1 [C04] | 405 ± 311 | 42.7 ± 4.3 | 
NS(=O)(=O)NCCc1ccc(S(=O)(=O)N2CCCC2)cc1 [C07] | 596 ± 264 | 43.5 ± 4.4 | 
CN(C)CCN(Cc1ccccc1)S(N)(=O)=O [C11] | 1620 ± 4530 | 39.8 ± 4 | 
CN1CCC(NS(N)(=O)=O)CC1 [C12] | 1680 ± 3480 | 52.1 ± 5.2 | 
NS(=O)(=O)N1CCC(N2CCCCC2)CC1 [C14] |  | 99.3 ± 9.9 | 
NS(=O)(=O)N1CCCc2ccccc21 [C15] |  | 89.5 ± 9 | 
NS(=O)(=O)NC1CCCc2ccccc21 (stereo not drawn) [C16] | 25000 | 42.6 ± 4.3 | 
CC(C)(C)OC(=O)N1CCN(S(N)(=O)=O)CC1 [C17] |  | 16.2 ± 1.6 | Melanin binding affinity Kd ± confidence [1]: Not detectable
COC(=O)C1CCCN1S(N)(=O)=O (stereo not drawn) [C18] |  | 69.8 ± 7 | Melanin binding affinity Kd ± confidence [1]: Not detectable
NS(=O)(=O)N1CCc2ccccc21 [C19] |  | 472 ± 47.2 | Melanin binding affinity Kd ± confidence [1]: Not detectable
CCOC(=O)C1CCN(S(N)(=O)=O)CC1 [C20] |  | 42.8 ± 4.3 | Melanin binding affinity Kd ± confidence [1]: Not detectable
NS(=O)(=O)N1CCOCC1 [C21] |  | 66.9 ± 7 | Melanin binding affinity Kd ± confidence [1]: Not detectable
NC(=O)C1CCN(S(N)(=O)=O)CC1 [C22] |  | 59.4 ± 6 | Melanin binding affinity Kd ± confidence [1]: Not detectable

Second part, led by results:

Kd [1] [µM] | SMILES | Ki [2] [nM] | also measured
78 ± 24 | NS(=O)(=O)c1cccc(-c2nc(-c3cccnc3)no2)c1 [A02] | 0.77 ± 0.08 | 
78 ± 39 | NS(=O)(=O)c1ccc(-n2nc(-c3ccccc3)ccc2=O)cc1 [A03] | 0.26 ± 0.03 | 
92 ± 17 | COc1ccc(-c2noc(-c3ccc(S(N)(=O)=O)cc3)n2)cc1OC [A04] | 0.46 ± 0.05 | 
97 ± 44 | CC(=NNc1ccc(S(N)(=O)=O)cc1)c1nccnc1C [A05] |  | ka ([3]; MP-SPR, 25 °C, 1:1 model): 0.61 ± 0.25 10^6 M^–1 s^–1; kd ([3]; MP-SPR, 25 °C, 1:1 model): 1.70 ± 0.25 10^–2 s^–1; Kd [3, 4]: 0.0315 ± 0.00919 µM
115 ± 85 | NS(=O)(=O)c1ccc(NN=C(c2cncc(F)c2)C2CC2)cc1 [A07] |  | ka ([3]; MP-SPR, 25 °C, 1:1 model): 0.24 ± 0.05 10^6 M^–1 s^–1; kd ([3]; MP-SPR, 25 °C, 1:1 model): 1.78 ± 0.40 10^–2 s^–1; Kd [3, 4]: 0.0756 ± 0.0112 µM; Kd ([3]; surface plasmon resonance, Appendix table 1, read-out: Kd against hCA II): 0.0756 ± 0.0112 µM
142 ± 55 | COc1ccc2cnn(-c3ccc(S(N)(=O)=O)cc3)c(=O)c2c1OC [A08] | 3.5 ± 0.4 | 
152 ± 98 | COc1cc(S(N)(=O)=O)ccc1-c1nc(-c2cccnc2)no1 [A09] | 0.74 ± 0.08 | 
156 ± 101 | COc1ccc(-c2ccc(=O)n(-c3ccc(S(N)(=O)=O)cc3)n2)cc1 [A10] | 0.08 ± 0.001 | 
177 ± 56 | Cc1ccccc1-c1noc(-c2ccc(S(N)(=O)=O)cc2)n1 [A11] | 0.42 ± 0.04 | 
203 ± 367 | NS(=O)(=O)c1ccc(-n2cccn2)cc1 [A13] | 0.072 ± 0.001 | 
451 ± 581 | NS(=O)(=O)c1ccc(-c2nc(-c3ccc(Oc4ccc(F)cc4)cc3)no2)cc1 [A16] | 48.3 ± 4.8 | 
483 ± 137 | CC(=NNc1ccc(S(N)(=O)=O)cc1)c1cnc2ccccc2n1 [A17] |  | ka ([3]; MP-SPR, 25 °C, 1:1 model): 0.13 ± 0.05 10^6 M^–1 s^–1; kd ([3]; MP-SPR, 25 °C, 1:1 model): 1.27 ± 0.11 10^–2 s^–1; Kd [3, 4]: 0.113 ± 0.0507 µM
722 ± 1030 | NS(=O)(=O)c1ccc2c(c1)Oc1ccccc1C(=O)N2C1CC1 [A21] | 0.82 ± 0.08 | 
1550 ± 4580 | COc1cc(S(N)(=O)=O)ccc1-c1nc(-c2ccc3c(c2)OC(=O)CN3C)no1 [A24] | 48.3 ± 4.8 | 
165 ± 19 | NS(=O)(=O)c1ccc(-c2ncc(C(=O)N3CCNCC3)o2)s1 [B02] | 0.069 ± 0.007 | 
231 ± 43 | CC(=O)Nc1nc(-c2csc(S(N)(=O)=O)c2)no1 [B03] |  | 
448 ± 166 | NS(=O)(=O)c1cc(-c2noc(C3CC3)n2)cs1 [B05] | 0.88 ± 0.08 | 
941 ± 1740 | NS(=O)(=O)c1cnn(-c2ccc(Cl)c(S(N)(=O)=O)c2)c1 [B07] | 0.008 ± 0.001 | 
2130 | Nc1onc(-c2csc(S(N)(=O)=O)c2)c1S(N)(=O)=O [B09] | 24.6 ± 2.5 | 
92 ± 25 | NS(=O)(=O)Nc1ccc(F)cc1F [C01] | 76.3 ± 7.6 | 
122 ± 40 | NS(=O)(=O)NCc1cccc2ccccc12 [C02] | 5250 ± 525 | 
361 ± 700 | NS(=O)(=O)NCc1ccc(F)cc1 [C03] | 70.5 ± 7.1 | 
412 ± 802 | NS(=O)(=O)NCC1CCCO1 (stereo not drawn) [C05] | 63.4 ± 6.3 | 
582 ± 465 | NS(=O)(=O)Nc1ccc(C(F)(F)F)cc1 [C06] | 37.8 ± 3.8 | 
1050 ± 2070 | NS(=O)(=O)Nc1cccc2ccccc12 [C08] | 56.7 ± 5.7 | 
1120 ± 2350 | NS(=O)(=O)N1CCc2ccccc2C1 [C09] | 32.8 ± 3.3 | 
1520 ± 4030 | CCN(CC)CCN(C)S(N)(=O)=O [C10] | 92.3 ± 9.2 | 
1700 | CC1Cc2ccccc2N1S(N)(=O)=O (stereo not drawn) [C13] | 316 ± 31.6 | 
